The text below walks through data of patent publication US10206906B2, “Synergistic combination of a phenolic-rich maple syrup extract and an antibiotic” (priority 2015, dated 2019).

The test system of one experiment is E. coli CFT073. Nature of the experiment: Checkerboard microdilution assay (growth inhibition synergy). Type of experiment: cell-based, Escherichia coli. How it is done:
(§1) The checkerboard microdilution assay is used for evaluation of in vitro antimicrobial synergy between two compounds (i.e., antibiotic/PRMSE, antibiotic/pure phenolic compound, and pure phenolic compounds with each other). Two-fold serial dilutions are prepared in MHB-II for each of the two compounds under study. The serial dilutions are then loaded into 96 well plates to achieve combinations having different concentrations of each of the two compounds. Each well is subsequently inoculated with 10^6 CFU mL^−1 of the desired bacterial strain and incubated at 37° C. for 18 h under static conditions. The Fractional Inhibitory Concentration Index (FICI) for each combination is calculated by using the following formula: FICcomponent 1=MICcomponent 1, in combination/MICcomponent 1,alone FICI=FICcomponent 1+FICcomponent 2
(§2) The FICIs are interpreted as follows: FICI of […] (synergy); 0.5<FICI ≤1 (no interaction/indifference); FICI of >4 (antagonism).
(In general: In broth dilution the organism is exposed to a series of concentrations in liquid medium.)

A further experiment concerns P. mirabilis HI4320. The experiment is described as above. Type of experiment: cell-based, Proteus mirabilis. Here is the method:
as §1, §2

The test system of experiment [1] is P. mirabilis HI4320 biofilm. The experiment is described as follows: Biofilm formation, microtitre plate crystal violet assay. Type of experiment: cell-based, Proteus mirabilis. Particulars: p<0.05. How it is done: Biofilm formation is quantified using the standard microtitre plate model. […] Aliquots (100 μL) of these cultures are transferred into the wells of polystyrene, flat bottom, non-treated 96 well plates (Falcon™, Corning™), in triplicate. For all assays, biofilms are allowed to develop for 16 h at 37° C. under static conditions, after which OD600 values are recorded, the spent broth is decanted from the wells, and the wells are gently rinsed three times with DI water. The washed biofilm is stained with crystal violet (CV). For CV stain assay, 100 μL of 0.1% (w/v) CV is loaded in each well and the plates are incubated for 15 min under static conditions at room temperature. The wells are subsequently rinsed with DI water to remove excess dye and the CV adsorbed to the biomass in each well is solubilized in 100 μL of absolute ethanol for 10 min. The solubilized CV is then quantified (as OD570) using a microplate reader. Control experiments are performed with cell-free broth to adjust for the background signal.

Experiment [2] deals with outer membrane of E. coli CFT073. Nature of the experiment: Outer membrane permeabilization, NPN uptake assay. Type of experiment: cell-based, Escherichia coli. Particulars: sub-MIC; concentration giving maximal increase in NPN uptake. Here is the method: (§3) The cells are harvested, washed with 5 mM HEPES buffer (pH 7.2), and resuspended in the same volume (10 mL) of 5 mM HEPES buffer (pH 7.2) containing 1 mM N-ethylmaleimide (NEM, Sigma-Aldrich Canada). Aliquots (1 mL) are mixed with NPN to a final concentration of 10 μM (in cell suspension) and fluorescence is measured using the microplate reader (ex/em 350/420 nm).

The test system of experiment [3] is outer membrane of P. mirabilis HI4320. The experiment is described as follows: Outer membrane permeabilization, NPN uptake assay. Type of experiment: cell-based, Proteus mirabilis. The conditions noted are these: sub-MIC; concentration giving maximal increase in NPN uptake. Here is the method:
as §3

In experiment [4] the test system is proton motive force-driven multidrug efflux pump of P. aeruginosa PA14. The experiment is described as follows: Ethidium bromide (EtBr) efflux assay. Type of experiment: cell-based, Pseudomonas aeruginosa. The conditions noted are these: PRMSE, catechol at 0.25 times the MIC; CCCP 100 μM; untreated cells 30.9. Here is the method:
(§4) An overnight grown culture of each strain is diluted 1:100 using MHB-II broth to a final volume of 10 mL and grown to an OD600 of 0.8-1.0 (at 37° C., 150 rpm). […] The tubes are incubated for 1 h (37° C., 150 rpm). The inoculum is then adjusted to 0.4 OD600 with MHB-II broth containing 5 μM EtBr and 2 mL aliquots of this mixture are pelleted (5000×g, 10 min at 4° C.). The pellets are incubated on ice immediately, resuspended in 1 mL of MHB-II, and aliquoted (200 μL) into a polystyrene 96 well black, clear-bottom plate (Corning™, Fisher Scientific, ON, Canada). EtBr efflux from the cells is monitored at room temperature using the microplate reader (ex/em 530/600 nm). Readings are taken at 5 min intervals for 1 h to monitor efflux pump activity. The background fluorescence of the medium is subtracted from all measurements and the assay is repeated independently in triplicate.

The test system of experiment [5] is proton motive force-driven multidrug efflux pump of P. aeruginosa PAO1. Nature of the experiment: Ethidium bromide (EtBr) efflux assay. Type of experiment: cell-based, Pseudomonas aeruginosa. Particulars: PRMSE, catechol at 0.25 times the MIC; CCCP 100 μM; untreated cells 37.6. Here is the method:
as §4

Experiment [6] relates to cell membrane of P. aeruginosa PA14. Nature of the experiment: BacLight membrane integrity assay. Type of experiment: cell-based, Pseudomonas aeruginosa. The conditions noted are these: PRMSE, catechol at 4 × MIC for 10 min; CTAB 10 μM; untreated = 100. Here is the method:
(§5) The BacLight kit (L-13152, Invitrogen™, Life Technologies Inc., Canada) is used to assess cell membrane damage. Overnight bacterial cultures are diluted 1:40 in fresh MHBII broth to a final volume of 5 mL, grown to an OD600 of 0.5-0.6, washed with filter-sterilized 10 mM phosphate buffered saline (PBS, pH 7.0) and resuspended in 1/10 of the original volume. […] Cultures are incubated at room temperature (21±2° C.) on a tube rocker for 10 min. At the end of the incubation period, an aliquot is taken for CFU counts and the remaining suspension is washed with 10 mM PBS and resuspended to an OD600) of 0.3. An aliquot (100 μL) of each bacterial suspension is removed and added to a 96-well, black, clear-bottom plate (Corning™, Fisher Scientific, ON, Canada) along with an equal volume of the BacLight™ reagent (2× stock solution, L13152, Invitrogen™, Life Technologies Inc., Canada) and the plates are incubated for 10 min at room temperature in the dark. At the end of the incubation period, fluorescence intensity is recorded for both kit components, SYTO-9 (ex/em 485/530 nm) and propidium iodide (ex/em 485/645 nm), using the microplate reader. Fluorescence readings from samples are normalized to the values obtained from untreated control to determine the ratio of membrane compromised cells to cells with intact membrane. Cetyltrimethylammonium bromide (CTAB, Sigma-Aldrich Canada), a cationic detergent that is known to cause membrane damage, is used at concentration of 10 μM as a positive control for membrane disruption.

Experiment [7] relates to cell membrane of P. aeruginosa PAO1. Nature of the experiment: BacLight membrane integrity assay. The conditions noted are these: PRMSE, catechol at 4 × MIC for 10 min; CTAB 10 μM; untreated = 100. Type of experiment: cell-based, Pseudomonas aeruginosa. Here is the method:
as §5

Another experiment deals with P. aeruginosa PA14. Nature of the experiment: Bacterial colony forming ability (CFU counts after exposure). Type of experiment: cell-based, Pseudomonas aeruginosa. The conditions noted are these: log decrease vs untreated control, 4 × MIC, 10 min, CTAB 10 μM. Here is the method: as §5
The next experiment concerns P. aeruginosa PAO1. The experiment is described as above. Type of experiment: cell-based, Pseudomonas aeruginosa. Particulars: log decrease vs untreated control; 4 × MIC, 10 min; CTAB 10 μM. How it is done:
as §5

[8] abbreviates: ciprofloxacin in combination with the labelled phenolic constituent.
The mark [9] stands for this setting: labelled constituent + gallic acid, * = synergistic.
The mark [10] stands for this setting: labelled constituent combined with gallic acid.
[11] abbreviates: labelled phenolic constituent in combination with ciprofloxacin.

A value given as a limit tells only on which side of the number the result lay.

In the case of `Oc1ccccc1O` [catechol, 1,2-dihydroxybenzene], the FIC of ciprofloxacin in the experiment on E. coli CFT073 (setting [8]) and in the experiment with P. mirabilis HI4320 (setting [8]) was 0.25 in each case. Besides, the figures for the “FICI, gallic acid” value in the experiment on E. coli CFT073 (setting [9]) and in the experiment on P. mirabilis HI4320 (setting [9]) were 0.25* and 0.37*, respectively. Moreover, the “FIC, gallic acid” value in the experiment with E. coli CFT073 (setting [10]) and in the experiment with P. mirabilis HI4320 (setting [10]) was 0.13 in each case. The FIC of compound in the experiment with E. coli CFT073 (setting [11]) and with P. mirabilis HI4320 (setting [11]) was 0.25 in each case. The “inhibition of monoculture biofilm formation (OD570/OD600)” value in experiment [1] (substance alone at sub-lethal concentrations, 16 h) is recorded as “significant inhibitory effects”. Besides, in experiment [1] (with ciprofloxacin, both at sub-lethal concentrations), the “inhibitory effect on biofilm formation, with ciprofloxacin” value is listed as “significant inhibitory effects”. Moreover, the “Minimum permeabilization concentration (NPN assay)” value in experiment [2] was determined as 0.06 mg/mL. In experiment [3], this molecule came in with a Minimum permeabilization concentration of 1 mg/mL. In experiment [4], this molecule returned an Efflux pump activity of 29.9%. Moreover, the “% EtBr efflux” value in experiment [5] stood at 35.8%. The “% cells with uncompromised membrane” value in experiment [6] is reported as 78.6%; in experiment [7] it was 80.4%. Besides, the entries for the “Bacterial colony forming ability (Δ log CFU mL^−1)” value in the experiment with P. aeruginosa PA14, in the experiment with P. aeruginosa PA14 (listed as Catechol) and in the experiment on P. aeruginosa PAO1 were 1.9 Δ log CFU mL^−1, ≥ 1.5 Δ log CFU mL^−1 and 1.5 Δ log CFU mL^−1, respectively.
